From patent US20230167150A1, “CD33 LIGANDS SUITABLE FOR INCORPORATION INTO CARRIERS” (GLYCOMIMETICS, INC., priority 2020, published 2023)

Target: T1, CD33 (Homo sapiens, UniProt P20138)
T1 construct: purchased BioLegend 750106
Assay: CD33 activity competitive binding assay (ELISA)
Conditions: immobilized CD33-Fc; competition with Neu5Acα2-3Galβ1-3GalNAc-PAA-biotin; streptavidin/horseradish peroxidase, TMB, absorbance 450 nm
Description: The assay to screen for and characterize glycomimetic ligands of CD33 is a competitive binding assay, which allows the determination of IC50 values. CD33-Fc (BioLegend catalog item 750106) was immobilized in 96 well microtiter plates by incubation at 4° C. overnight. To reduce non-specific binding, bovine serum albumin was added to each well and incubated at room temperature for 3 hours. The plate was washed and serial dilutions of the test compounds were added to the wells in the presence of biotinylated polyacrylamide conjugated with Neu5Acα2-3Galβ1-3GalNAc-PAA-biotin (GlycoTech catalog item 01-088). After incubation at room temperature for 2 hours and washing, streptavidin/horseradish peroxidase was added to each well and incubated at room temperature for 30 minutes followed by an additional wash.
To determine the amount of glycopolymer bound to the immobilized CD33, the peroxidase substrate […] tetramethylbenzidine (TMB) was added. After 5 minutes, the enzyme reaction was stopped by the addition of H3PO4, and the absorbance of light at a wavelength of 450 nm was determined. The concentration of test compound required to inhibit binding by 50% was determined and reported as the IC50 value.

T1 sequence (P20138 18-364): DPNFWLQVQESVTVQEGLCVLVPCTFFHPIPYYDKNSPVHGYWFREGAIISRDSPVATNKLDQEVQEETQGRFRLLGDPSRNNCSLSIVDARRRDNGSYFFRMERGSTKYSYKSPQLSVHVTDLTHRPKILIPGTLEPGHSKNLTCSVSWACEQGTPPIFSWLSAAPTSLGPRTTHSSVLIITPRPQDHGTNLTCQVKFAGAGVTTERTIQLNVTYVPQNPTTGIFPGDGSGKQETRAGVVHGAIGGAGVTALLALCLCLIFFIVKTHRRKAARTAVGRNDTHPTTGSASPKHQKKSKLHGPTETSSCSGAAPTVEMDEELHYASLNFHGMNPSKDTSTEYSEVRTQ

Row | Compound | IC50
1 | Cc1cc(C(=O)NC[C@@H](O)[C@@H](O)C2O[C@@](OCCCN(Cc3ccccc3)C(=O)CCOCCOCCOCCOCCOCCOCCN=[N+]=[N-])(C(=O)O)CC(O)[C@H]2NC(=O)Cn2cc(C3CCCCC3)nn2)cc(C)c1O (some centres unmarked) [Compound 13] | 54 µM
2 | Cc1cc(C(=O)NC[C@@H](O)[C@@H](O)C2O[C@@](OCCCN(CCc3ccccc3)C(=O)CCOCCOCCOCCOCCOCCOCCN=[N+]=[N-])(C(=O)O)CC(O)[C@H]2NC(=O)Cn2cc(C3CCCCC3)nn2)cc(C)c1O (some centres unmarked) [Compound 15] | 27 µM
